Results from the NIST ThermoML archive (doi:10.1016/j.jct.2010.04.015).
Numbers after ± are expanded uncertainties.

Details: Liquid, Closed cell (Static) method

Row | vapor or sublimation pressure (293.29 K) | vapor or sublimation pressure (303.35 K) | vapor or sublimation pressure (313.24 K) | vapor or sublimation pressure (323.25 K) | vapor or sublimation pressure (332.57 K) | vapor or sublimation pressure (343.18 K) | vapor or sublimation pressure (353.17 K) | vapor or sublimation pressure (363.1 K) | vapor or sublimation pressure (373 K) | vapor or sublimation pressure (283.15 K) | vapor or sublimation pressure (293.14 K) | vapor or sublimation pressure (303.09 K) | vapor or sublimation pressure (313.08 K) | vapor or sublimation pressure (323.28 K) | vapor or sublimation pressure (333.12 K) | vapor or sublimation pressure (343.12 K) | vapor or sublimation pressure (363.17 K) | vapor or sublimation pressure (373.1 K) | SMILES
1 | 0.0415 ± 0.001 kPa | 0.0975 ± 0.0019 kPa | 0.2191 ± 0.0028 kPa | 0.4556 ± 0.0048 kPa | 0.8745 ± 0.0082 kPa | 1.659 ± 0.011 kPa | 2.933 ± 0.014 kPa | 4.987 ± 0.019 kPa | 8.142 ± 0.025 kPa |  |  |  |  |  |  |  |  |  | CC(C)(N)CO [2-amino-2-methylpropan-1-ol]
2 |  |  |  |  |  |  |  |  |  | 0.007 ± 0.0003 kPa | 0.016 ± 0.0006 kPa | 0.0346 ± 0.0009 kPa | 0.0707 ± 0.0014 kPa | 0.1418 ± 0.0021 kPa | 0.2604 ± 0.0031 kPa | 0.4742 ± 0.005 kPa | 1.419 ± 0.01 kPa | 2.315 ± 0.012 kPa | CN(C)CCCO [3-dimethylamino-1-propanol]
